In one test the target is hepatic lipase (HL) (Homo sapiens (Human), UniProt P11150). Put plainly: HL assay: hepatic lipase activity with fluorescent substrate A10070 in DMPG vesicles. Type of test: biochemical. In a few lines:
(§1)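 Compounds were preincubated with enzyme for 30 min at 37° C before FRET-substrate vesicles (A10070 in DMPG, 0.11 mole fraction) were added. Reaction rates were obtained from the 300–900 sec slope of fluorescence at 490/530 nm.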

In a further test the target is Endothelial lipase (EL) (Homo sapiens (Human), UniProt Q9Y5X9). Nature of the test: EL assay: endothelial lipase activity with fluorescent substrate A10070 in DMPG vesicles. Type of test: biochemical. The procedure, abridged:
as §1

Sequence of Endothelial lipase (EL) (Q9Y5X9 21-500): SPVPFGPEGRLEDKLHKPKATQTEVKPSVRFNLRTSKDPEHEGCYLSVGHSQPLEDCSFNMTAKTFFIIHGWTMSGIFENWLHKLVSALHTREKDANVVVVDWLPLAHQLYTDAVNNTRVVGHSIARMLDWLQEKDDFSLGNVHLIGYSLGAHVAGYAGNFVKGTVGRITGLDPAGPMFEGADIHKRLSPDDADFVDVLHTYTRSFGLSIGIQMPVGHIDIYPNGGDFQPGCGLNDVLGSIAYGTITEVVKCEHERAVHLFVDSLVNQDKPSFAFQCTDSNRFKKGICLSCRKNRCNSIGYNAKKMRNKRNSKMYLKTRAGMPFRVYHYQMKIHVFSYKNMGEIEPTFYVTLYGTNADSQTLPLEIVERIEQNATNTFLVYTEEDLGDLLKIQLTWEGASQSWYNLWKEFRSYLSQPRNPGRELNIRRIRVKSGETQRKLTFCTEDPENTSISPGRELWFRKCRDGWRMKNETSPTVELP
Sequence of hepatic lipase (HL) (P11150 23-499, species assumed): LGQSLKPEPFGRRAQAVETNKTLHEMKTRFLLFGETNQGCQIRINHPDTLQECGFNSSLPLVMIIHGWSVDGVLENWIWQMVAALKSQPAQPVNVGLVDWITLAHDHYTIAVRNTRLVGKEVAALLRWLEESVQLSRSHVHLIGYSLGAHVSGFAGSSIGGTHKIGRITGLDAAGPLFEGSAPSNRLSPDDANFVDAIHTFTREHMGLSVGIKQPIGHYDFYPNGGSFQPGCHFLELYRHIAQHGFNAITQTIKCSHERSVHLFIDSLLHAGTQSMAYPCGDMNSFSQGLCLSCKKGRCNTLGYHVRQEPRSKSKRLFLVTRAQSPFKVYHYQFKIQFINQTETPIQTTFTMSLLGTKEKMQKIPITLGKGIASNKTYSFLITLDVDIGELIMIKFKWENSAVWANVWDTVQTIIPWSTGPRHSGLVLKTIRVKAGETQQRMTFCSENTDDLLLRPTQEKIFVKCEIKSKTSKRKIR

Take `COCCNC(=O)c1ccc(-c2ccc3nc(C(C(=O)NCCS(N)(=O)=O)S(=O)(=O)Cc4cc(Cl)cc(Cl)c4)sc3c2)cc1` (stereo not drawn) [Example B295, 4-{2-[(3,5-dichlorophen-yl)methanesulfonyl[(2-sulfa-moylethyl)carbamoyl]meth-yl]-1,3-benzothiazol-6-yl}-N-(2-methoxyethyl)ben-zamide]: the IC50 against hepatic lipase (HL) was 140 nM; against Endothelial lipase (EL), 20.9 nM.

Regarding `NS(=O)(=O)CCNC(=O)C(c1nc2ccc(-c3ccc(C(=O)N4CCOCC4)cc3)cc2s1)S(=O)(=O)Cc1ccc(F)cc1` (stereo not drawn) [Example B296, 2-[(4-fluorophenyl)methanesulfonyl]-2-{6-[4-(morpholine-4-carbon-yl)phenyl]-1,3-benzothiazol-2-yl}-N-(2-sulfamoyleth-yl)acetamide], the IC50 came out at 267 nM against hepatic lipase (HL) and 2.9 nM against Endothelial lipase (EL).

On to `NS(=O)(=O)CCNC(=O)C(c1nc2ccc(-c3ccc(C(=O)N4CCOCC4)cc3)cc2s1)S(=O)(=O)Cc1ccc(Cl)c(Cl)c1` (stereo not drawn) [Example B297, 2-[(3,4-dichlorophen-yl)methanesulfonyl]-2-{6-[4-(morpholine-4-carbon-yl)phenyl]-1,3-benzothiazol-2-yl}-N-(2-sulfamoylethyl)a-cetamide], for which the IC50 turned out to be 556 nM against hepatic lipase (HL) and 5.3 nM on Endothelial lipase (EL).

Take `COC1CN(C(=O)c2ccc(-c3ccc4nc(C(C(=O)NCCS(N)(=O)=O)S(=O)(=O)Cc5ccc(C(F)(F)F)cc5)sc4c3)cc2)C1` (stereo not drawn) [Example B299]: the IC50 against hepatic lipase (HL) was 74.2 nM; against Endothelial lipase (EL), 5.6 nM.

In the case of `COC1CN(C(=O)c2ccc(-c3ccc4nc(C(C(=O)NCCS(N)(=O)=O)S(=O)(=O)Cc5ccc(OC(F)(F)F)cc5)sc4c3)cc2)C1` (stereo not drawn) [Example B300, 2-{6-[4-(3-methoxy-azetidine-1-carbonyl)phen-yl]-1,3-benzothiazol-2-yl}-N-(2-sulfamoyl-ethyl)-2-{[4-(trifluoro-methoxy)phenyl]methane-sulfonyl}acetamide], the figures for the IC50 on hepatic lipase (HL) and against Endothelial lipase (EL) were 85.1 nM and 5.5 nM, respectively.

With `COC1CN(C(=O)c2ccc(-c3ccc4nc(C(C(=O)NCCS(N)(=O)=O)S(=O)(=O)CCC(F)(F)F)sc4c3)cc2)C1` (stereo not drawn) [Example B301, 2-{6-[4-(3-methoxy-azetidine-1-carbonyl)phen-yl]-1,3-benzothiazol-2-yl}-N-(2-sulfamoyl-ethyl)-2-(3,3,3-trifluoro-propanesulfonyl)acetamide], the values for the IC50 at hepatic lipase (HL) and on Endothelial lipase (EL) were 113 nM and 7.8 nM, respectively.

Turning to `COC1CN(C(=O)c2ccc(-c3ccc4nc(C(C(=O)NCCS(N)(=O)=O)S(=O)(=O)Cc5ccc(F)cc5)sc4c3)cc2)C1` (stereo not drawn) [Example B302, 2-[(4-fluorophen-yl)methanesulfonyl]-2-{6-[4-(3-methoxyazetidine-1-carbonyl)phenyl]-1,3-benzothiazol-2-yl}-N-(2-sulfamoylethyl)acetamide], the IC50 against hepatic lipase (HL) was determined as 52 nM; at Endothelial lipase (EL) it was 7.2 nM.

With `NS(=O)(=O)CCNC(=O)C(c1nc2ccc(-c3ccc4c(c3)CNC4=O)cc2s1)S(=O)(=O)Cc1ccc(OC(F)(F)F)cc1` (stereo not drawn) [Example B303, 2-[6-(1-oxo-2,3-dihydro-1H-isoindol-5-yl)-1,3-benzothiazol-2-yl]-N-(2-sulfamoylethyl)-2-{[4-(trifluoromethoxy)phen-yl]methanesulfonyl)a-cetamide], the IC50 against hepatic lipase (HL) turned out to be 51.2 nM; on Endothelial lipase (EL), 2.5 nM.

With `CO[C@H]1CCN(C(=O)c2ccc(-c3ccc4nc(C(C(=O)NCCS(N)(=O)=O)S(=O)(=O)CCC(F)(F)F)sc4c3)cc2)C1` (stereo partly drawn) [Example B304, 2-(6-{4-[(3S)-3-methoxy-pyrrolidine-1-carbonyl]phen-yl}-1,3-benzothiazol-2-yl)-N-(2-sulfamoyl-ethyl)-2-(3,3,3-trifluoro-propanesulfonyl)acetamide], the IC50 was determined as 16.6 nM against hepatic lipase (HL) and 0.7 nM on Endothelial lipase (EL).

Regarding `CS(=O)(=O)C(C(=O)NCCS(N)(=O)=O)c1nc2ccc(-c3ccccc3F)cc2s1` (stereo not drawn) [Example B305, 2-[6-(2-fluorophenyl)-1,3-benzothiazol-2-yl]-2-methanesulfonyl-N-(2-sulfamoylethyl)acetamide], the results for the IC50 against hepatic lipase (HL) and against Endothelial lipase (EL) were 1 nM and 3 nM, respectively.

For the molecule `COCCS(=O)(=O)C(C(=O)NCCS(N)(=O)=O)c1nc2ccc(-c3ccc(C(=O)N4CC[C@H](OC)C4)cc3)cc2s1` (stereo partly drawn) [Example B306, 2-(2-methoxyethane-sulfonyl)-2-(6-{4-[(3S)-3-methoxypyrrolidine-1-carbonyl]phenyl}-1,3-benzothiazol-2-yl)-N-(2-sulfamoylethyl)acetamide], the IC50 against hepatic lipase (HL) came out at 149 nM; against Endothelial lipase (EL) it was 3.8 nM.

With `COCCS(=O)(=O)C(C(=O)NCCS(N)(=O)=O)c1nc2cc(-c3ccc(F)nc3)ccc2s1` (stereo not drawn) [Example B308, 2-[5-(6-fluoropyridin-3-yl)-1,3-benzothiazol-2-yl]-2-(2-methoxyethane-sulfonyl)-N-(2-sulfamoylethyl)acetamide], the IC50 against hepatic lipase (HL) stood at 194 nM; against Endothelial lipase (EL) it was 1.3 nM.

`NS(=O)(=O)CCNC(=O)C(c1nc2cc(-c3ccc(F)nc3)ccc2s1)S(=O)(=O)Cc1ccc(OC(F)(F)F)cc1` (stereo not drawn) [Example B309, 2-[5-(6-fluoropyridin-3-yl)-1,3-benzothiazol-2-yl]-N-(2-sulfamoylethyl)-2-{[4-(trifluoromethoxy)phen-yl]methanesulfonyl}a-cetamide]: the IC50 at hepatic lipase (HL) stood at 67 nM; against Endothelial lipase (EL), 0.5 nM.

Regarding `NS(=O)(=O)CCNC(=O)C(c1nc2cc(-c3ccc(F)nc3)ccc2s1)S(=O)(=O)Cc1ccc(F)cc1` (stereo not drawn) [Example B310, 2-[(4-fluorophenyl)meth-anesulfonyl]-2-[5-(6-fluoropyridin-3-yl)-1,3-benzothiazol-2-yl]-N-(2-sulfamoylethyl)acetamide], the IC50 turned out to be 51.4 nM against hepatic lipase (HL) and 1 nM against Endothelial lipase (EL).

Turning to `NS(=O)(=O)CCNC(=O)C(c1nc2cc(-c3ccc(F)nc3)ccc2s1)S(=O)(=O)CCC(F)(F)F` (stereo not drawn) [Example B311, 2-[5-(6-fluoropyridin-3-yl)-1,3-benzothiazol-2-yl]-N-(2-sulfamoylethyl)-2-(3,3,3-trifluoropropane-sulfonyl)acetamide], the IC50 was found to be 24.2 nM on hepatic lipase (HL) and 3.1 nM at Endothelial lipase (EL).

In the case of `CC(C)S(=O)(=O)C(C(=O)NCCS(N)(=O)=O)c1nc2cc(-c3ccc(F)nc3)ccc2s1` (stereo not drawn) [Example B312, 2-[5-(6-fluoropyridin-3-yl)-1,3-benzothiazol-2-yl]-2-(propane-2-sulfonyl)-N-(2-sulfamoylethyl)a-cetamide], the IC50 against hepatic lipase (HL) was 153 nM; at Endothelial lipase (EL), 6.2 nM.

`NS(=O)(=O)CCNC(=O)C(c1nc2ccc(-c3ccc(F)nc3)cc2s1)S(=O)(=O)CCN1CCOCC1` (stereo not drawn) [Example B313, 2-[6-(6-fluoropyridin-3-yl)-1,3-benzothiazol-2-yl]-2-[2-(morpholin-4-yl)ethanesulfonyl]-N-(2-sulfamoylethyl)acetamide]: the IC50 against hepatic lipase (HL) amounted to 106 nM; at Endothelial lipase (EL) it was 10.8 nM.

Regarding `NS(=O)(=O)CCNC(=O)C(c1nc2ccc(-c3ccc(CO)cc3)cc2s1)S(=O)(=O)CCN1CCOCC1` (stereo not drawn) [Example B314, 2-{6-[4-(hydroxymeth-yl)phenyl]-1,3-benzothiazol-2-yl}-2-[2-(morpholin-4-yl)ethanesulfonyl]-N-(2-sulfamoylethyl)acetamide], the figures for the IC50 against hepatic lipase (HL) and on Endothelial lipase (EL) were 35.1 nM and 16.1 nM, respectively.

Usually IC50 stands for the concentration needed to halve the response being measured. A higher IC50 goes with lower potency.

Source of the values: patent US8987314B2, “Amide, urea or sulfone amide linked benzothiazole inhibitors of endothelial lipase” (Bristol-Myers Squibb Company, priority 2012, dated 2015).
